Data: US20260297092A1, “PYRAZOLOPYRIMIDINE DERIVATIVES AS INHIBITORS OF NLRP3” (Takeda Pharmaceutical Company Limited, priority 2023, published 2026)

What was measured:
[1] = system: NLRP3 inflammasome (IL-1β production in THP-1 cells); assay: IL-1β TR-FRET Assay (percentage of inhibition at 300 nM, 6 μM or 10 μM); format: cell-based, human; settings: Homo sapiens, LPS priming, ATP activation; for inhibition at 0.3 µM: THP-1, 300 nM, read-out: IL-1β inhibitory rate at 300 nM (%); for inhibition at 6 µM: THP-1, 6 μM, read-out: IL-1β inhibitory rate at 6 μM (%)
Procedure, shortened: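 Percent inhibition of IL-1β used DMSO wells as 0% and 3 μM MCC-950 wells as full inhibition, with supernatant read by HTRF. Beforehand, IFN-γ-differentiated (25 ng/mL, 24 h), LPS-primed (50 ng/mL, 24 h) THP-1 cells received compound 30 min before inflammasome activation by 20 mM ATP for 2 h.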

[2] = system: TNF-α (NF-κB pathway, THP-1 cells); assay: TNF-α Assay (IC50); format: cell-based, human; settings: Homo sapiens, 600 ng/mL LPS, 3 hours
Method: TNF-α Assay (Reported as IC50)
Monocytic THP-1 cells (ATCC: TIB-202) were maintained in accordance with the provider's instructions in RPMI media (Life Technologies, Cat #A10491-01); RPMI was supplemented with 10% heat inactivated fetal bovine serum (Hyclone Cat #SH30396.03). The cells were differentiated into macrophages by the addition of 25 ng/mL IFN-7 for 24 hours at 37° C./5% CO2. Media was exchanged with fresh media with no FBS. The cells were plated at 40,000 cells per well in 384-well flat-bottom cell culture plates (Costar 3764) containing compounds (added in 1:1000) in a 1:3.16 serial dilution series in DMSO and were incubated for 30 minutes at 37° C./5% CO2. The NF-κB pathway was activated with the addition of 600 ng/mL LPS and the cells were incubated for 3 hours at 37° C./5% CO2. At the end of the incubation period, supernatant ([…]) was removed, and TNF-alpha were monitored using an ELISA (Human TNF-α ELISA, R&D systems, Cat #DY210) according to the manufacturer's instructions. 100% inhibition is determined with positive control, TPCA-1.
The IC50 values in the TNF-α assay were calculated from a plot of percentage of inhibition versus the inhibitor concentration by a logistics curve fit according to: Y=[Bottom+(Top−Bottom)]/(1+10^[(Log IC50−X)·Hill Slope], where Y was the […] at the inhibitor concentration, X, “Bottom” was the lowest inhibition value, i.e., 0%, “Top” was the maximum inhibition value, i.e., 100%, and the “Hill Slope” described the slope of the sigmoidal curve between the “Bottom” and “Top” values. The curve fitting was conducted with internally developed software.

SMILES | inhibition at 0.3 µM [1] [%] | IC50 [2] [µM] | inhibition at 6 µM [1] [%] | inhibition at 10 µM ([1]; THP-1, 10 μM, read-out: IL-1β inhibitory rate at 10 μM (%)) [%]
Cc1cc(C)c(-n2cc3c(=O)[nH]c(-c4cnccn4)nc3n2)c(O)c1 [Example 61, 2-(2-hydroxy-4,6-dimethylphenyl)-6-(pyrazin-2-yl)-2,5-dihydro-4H-pyrazolo[3,4-d]pyrimidin-4-one] | 100 | > 30 | – | –
CCOc1nc2nn(-c3c(O)cc(C)cc3F)c(C)c2c(=O)[nH]1 [Example 51, 6-ethoxy-2-(2-fluoro-6-hydroxy-4-methylphenyl)-3-methyl-2,5-dihydro-4H-pyrazolo[3,4-d]pyrimidin-4-one] | 100 | > 30 | – | –
Cc1cc(C)c(-n2cc3c(=O)[nH]c(OCCN(C)C)nc3n2)c(O)c1 [Example 50, 6-[2-(dimethylamino)ethoxy]-2-(2-hydroxy-4,6-dimethylphenyl)-2,5-dihydro-4H-pyrazolo[3,4-d]pyrimidin-4-one] | 101 | > 30 | – | –
CCOc1nc2nn(-c3c(C)cc(OC)cc3C)cc2c(=O)[nH]1 [Example 145, 6-ethoxy-2-(4-methoxy-2,6-dimethylphenyl)-2,5-dihydro-4H-pyrazolo[3,4-d]pyrimidin-4-one] | 106 | > 30 | – | –
CCOc1nc2nn(-c3c(C)cc(C4CC4)cc3Br)cc2c(=O)[nH]1 [Example 151, 2-(2-bromo-4-cyclopropyl-6-methylphenyl)-6-ethoxy-2,5-dihydro-4H-pyrazolo[3,4-d]pyrimidin-4-one] | 98 | > 30 | – | –
Cc1ncc(-c2nc3nn(-c4c(C)cc(C5CC5)cc4C)cc3c(=O)[nH]2)o1 [Example 273, 2-(4-cyclopropyl-2,6-dimethylphenyl)-6-(2-methyl-1,3-oxazol-5-yl)-2,5-dihydro-4H-pyrazolo[3,4-d]pyrimidin-4-one] | – | > 30 | 99 | –
Cn1ccc(-c2nc3nn(-c4c(F)cc(C5CC5)cc4C(F)F)cc3c(=O)[nH]2)n1 [Example 299, 2-[4-cyclopropyl-2-(difluoromethyl)-6-fluorophenyl]-6-(1-methyl-1H-pyrazol-3-yl)-2,5-dihydro-4H-pyrazolo[3,4-d]pyrimidin-4-one] | – | > 30 | 99 | –
CCOc1nc2nn(-c3c(F)cc(OC(F)F)cc3C(F)F)cc2c(=O)[nH]1 [Example 163, 2-[4-(difluoromethoxy)-2-(difluoromethyl)-6-fluorophenyl]-6-ethoxy-2,5-dihydro-4H-pyrazolo[3,4-d]pyrimidin-4-one] | 97 | > 30 | – | –
CCOc1nc2nn(-c3c(F)cc(C)cc3Cl)cc2c(=O)[nH]1 [Example 135, 2-(2-chloro-6-fluoro-4-methylphenyl)-6-ethoxy-2,5-dihydro-4H-pyrazolo[3,4-d]pyrimidin-4-one] | 98 | > 30 | – | –
CCOc1nc2nn(-c3c(C)cc(C4CC4)nc3C(F)(F)F)cc2c(=O)[nH]1 [Example 303, 2-[6-cyclopropyl-4-methyl-2-(trifluoromethyl)pyridin-3-yl]-6-ethoxy-2,5-dihydro-4H-pyrazolo[3,4-d]pyrimidin-4-one] | – | > 30 | 100 | –
CCOc1nc2nn(-c3c(C)cc(CC)cc3F)cc2c(=O)[nH]1 [Example 122, 6-ethoxy-2-(4-ethyl-2-fluoro-6-methylphenyl)-2,5-dihydro-4H-pyrazolo[3,4-d]pyrimidin-4-one] | 99 | > 30 | – | –
CCOc1nc2nn(-c3c(F)cc(Br)cc3Cl)cc2c(=O)[nH]1 [Example 133, 2-(4-bromo-2-chloro-6-fluorophenyl)-6-ethoxy-2,5-dihydro-4H-pyrazolo[3,4-d]pyrimidin-4-one] | 96 | > 30 | – | –
CCOc1nc2nn(-c3c(C)cc(Cl)cc3F)cc2c(=O)[nH]1 [Example 65, 2-(4-chloro-2-fluoro-6-methylphenyl)-6-ethoxy-2,5-dihydro-4H-pyrazolo[3,4-d]pyrimidin-4-one] | 96 | > 30 | – | –
CCOc1nc2nn(-c3c(O)cc(C)cc3OC(F)F)cc2c(=O)[nH]1 [Example 116, 2-[2-(difluoromethoxy)-6-hydroxy-4-methylphenyl]-6-ethoxy-2,5-dihydro-4H-pyrazolo[3,4-d]pyrimidin-4-one] | 96 | > 30 | – | –
CCOc1nc2nn(-c3ccc(C)cc3F)cc2c(=O)[nH]1 [Example 113, 6-ethoxy-2-(2-fluoro-4-methylphenyl)-2,5-dihydro-4H-pyrazolo[3,4-d]pyrimidin-4-one] | 67 | > 30 | – | –
COc1nc2nn(-c3c(C)cc(OC(F)F)cc3C(F)F)cc2c(=O)[nH]1 [Example 284, 2-[4-(difluoromethoxy)-2-(difluoromethyl)-6-methylphenyl]-6-methoxy-2,5-dihydro-4H-pyrazolo[3,4-d]pyrimidin-4-one] | – | > 30 | 103 | –
COC(C)(C)c1nc2nn(-c3c(C)cc(C)cc3O)cc2c(=O)[nH]1 [Example 85, 2-(2-hydroxy-4,6-dimethylphenyl)-6-(2-methoxypropan-2-yl)-2,5-dihydro-4H-pyrazolo[3,4-d]pyrimidin-4-one] | 92 | > 30 | – | –
CCOc1nc2nn(-c3c(C)cc(C4CC4)cc3OC(F)F)cc2c(=O)[nH]1 [Example 222, 2-[4-cyclopropyl-2-(difluoromethoxy)-6-methylphenyl]-6-ethoxy-2,5-dihydro-4H-pyrazolo[3,4-d]pyrimidin-4-one] | 98 | > 30 | – | –
CCOc1nc2nn(-c3c(C)cc(OC(F)F)cc3Br)cc2c(=O)[nH]1 [Example 142, 2-[2-bromo-4-(difluoromethoxy)-6-methylphenyl]-6-ethoxy-2,5-dihydro-4H-pyrazolo[3,4-d]pyrimidin-4-one] | 93 | > 30 | – | –
Cc1cc(C2CC2)cc(C)c1-n1cc2c(=O)[nH]c(OCC(F)F)nc2n1 [Example 285, 2-(4-cyclopropyl-2,6-dimethylphenyl)-6-(2,2-difluoroethoxy)-2,5-dihydro-4H-pyrazolo[3,4-d]pyrimidin-4-one] | – | > 30 | 100 | –
Cc1ccc(-n2cc3c(=O)[nH]c(Oc4ccccc4)nc3n2)c(C)c1 [Example 100, 2-(2,4-dimethylphenyl)-6-phenoxy-2,5-dihydro-4H-pyrazolo[3,4-d]pyrimidin-4-one] | – | > 30 | – | 100
O=c1[nH]c(C2CC2)nc2nn(-c3c(F)cc(C4CC4)cc3C(F)F)cc12 [Example 173, 6-cyclopropyl-2-[4-cyclopropyl-2-(difluoromethyl)-6-fluorophenyl]-2,5-dihydro-4H-pyrazolo[3,4-d]pyrimidin-4-one] | 108 | > 30 | – | –
Cc1cc(O)c(-n2cc3c(=O)[nH]c(-c4ccncn4)nc3n2)c(C)c1C [Example 77, 2-(6-hydroxy-2,3,4-trimethylphenyl)-6-(pyrimidin-4-yl)-2,5-dihydro-4H-pyrazolo[3,4-d]pyrimidin-4-one] | 99 | > 30 | – | –
Cc1cc(C)c(-n2cc3c(=O)[nH]c(CC4CCCCO4)nc3n2)c(O)c1 (stereo not drawn) [Example 67, 2-(2-hydroxy-4,6-dimethylphenyl)-6-[(oxan-2-yl)methyl]-2,5-dihydro-4H-pyrazolo[3,4-d]pyrimidin-4-one] | 98 | > 30 | – | –
